Each compound was assayed against phosphorylated active hERK2 enzyme (Homo sapiens (Human), UniProt P28482) (assay: Active Human ERK2 (hERK2) Activity Assay (IMAP-FP)). Conditions: Table 5, 0.5 nM hERK2, 30 μM ATP, 10 point titration, read-out: AERK2 IC50.
Assay type: biochemical
In short: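 IMAP fluorescence-polarization kinase assay: 0.5 nM activated hERK2 with 900 nM unlabeled plus 80 nM labeled peptide and 30 μM ATP, reacted 60 min. Quenched with IMAP beads in binding buffer with 24 mM NaCl; FP read after 60 min equilibration.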

Chain of phosphorylated active hERK2 enzyme (P28482 whole entry): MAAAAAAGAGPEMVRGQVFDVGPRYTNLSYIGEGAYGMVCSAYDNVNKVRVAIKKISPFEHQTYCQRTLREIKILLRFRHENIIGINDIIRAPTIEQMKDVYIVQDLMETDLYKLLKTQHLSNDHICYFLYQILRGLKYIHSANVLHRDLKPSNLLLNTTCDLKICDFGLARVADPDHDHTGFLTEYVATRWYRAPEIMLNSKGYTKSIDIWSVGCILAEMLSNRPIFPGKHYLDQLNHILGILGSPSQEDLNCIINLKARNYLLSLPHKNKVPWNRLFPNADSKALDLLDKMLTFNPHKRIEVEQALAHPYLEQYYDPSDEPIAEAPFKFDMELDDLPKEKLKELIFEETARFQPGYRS

IC50 [nM] | Compound
0.82 | C[C@@H](NC(=O)Nc1cc2[nH]nc(N3CCCC3)c2cn1)c1ccccc1 [Example 29, 1-[(1R)-1-phenylethyl]-3-(3-pyrrolidin-1-yl-1H-pyrazolo[4,3-c]pyridin-6-yl)urea]

Same assay, conditions: Table 6, 0.5 nM hERK2, 30 μM ATP, 10 point titration, read-out: AERK2 IC50

Compound | IC50 [nM]
O=C(Nc1cc2[nH]nc(N3CC4CCC(C3)O4)c2cn1)N[C@H](CO)c1ccccc1 [Example 439, 1-[(1S)-2-hydroxy-1-phenylethyl]-3-[3-(8-oxa-3-azabicyclo[3.2.1]-oct-3-yl)-1H-pyrazolo[4,3-c]-pyridin-6-yl]urea] | 1.9
CC(C)(O)[C@@H](NC(=O)Nc1cc2[nH]nc(N3CC4CCC(C3)O4)c2cn1)c1ccccc1 [Example 442, 1-[(1S)-2-hydroxy-2-methyl-1-phenylpropyl]-3-[3-(8-oxa-3-azabicyclo[3.2.1]-oct-3-yl)-1H-pyrazolo[4,3-c]-pyridin-6-yl]urea] | 0.5
C[C@@H](NC(=O)Nc1cc2[nH]nc(NC3CCCCC3)c2cn1)c1ccccc1 [Example 187, 1-[3-(cyclohexyl-amino)-1H-pyrazolo[4,3-c]pyridin-6-yl]-3-[(1R)-1-phenylethyl]urea] | 6.8
CC(C)N1CCc2nc(NC(=O)N[C@H](C)c3ccccc3)cc3[nH]nc1c23 [Example 142, (R)-1-(3-isopropyl-1,3,4,5-tetrahydropyrazolo[3,4,5-de][1,6]naphthyridin-7-yl)-3-(1-phenylethyl)urea] | 1.2
Nc1n[nH]c2c(F)c(NC(=O)N[C@H](COC(F)F)c3ccccc3)ncc12 [Example 362, 1-(3-amino-7-fluoro-1H-pyrazolo[4,3-c]-pyridin-6-yl)-3-[(1S)-2-(difluoromethoxy)-1-phenylethyl]urea] | 1.3
C[C@@H](NC(=O)Nc1cc2[nH]nc(N3CC[C@@H]3C)c2cn1)c1ccccc1 [Example 90, 1-{3-[(2S)-2-methylazetidin-1-yl]-1H-pyrazolo[4,3-c]-pyridin-6-yl}-3-[(1R)-1-phenylethyl]-urea] | 14.9
CC[C@@H](NC(=O)Nc1cc2[nH]nc(N3CCCC3)c2cn1)c1ccccn1 [Example 344, 1-[(1R)-1-pyridin-2-ylpropyl]-3-(3-pyrrolidin-1-yl-1H-pyrazolo[4,3-c]-pyridin-6-yl)urea] | 1020
COC[C@@H](NC(=O)Nc1cc2[nH]nc(NCC3CC(C(C)(C)O)C3)c2cn1)c1ccccc1 (stereo partly drawn) [Example 183, 1-[3-({[3-(1-hydroxy-1-methylethyl)-cyclobutyl]methyl}amino)-1H-pyrazolo[4,3-c]pyridin-6-yl]-3-[(1S)-2-methoxy-1-phenylethyl]urea] | 3.6
CC(=O)N1CCc2nc(NC(=O)N[C@H](C)c3ccccc3)cc3[nH]nc1c23 [Example 140, (R)-1-(3-acetyl-1,3,4,5-tetrahydropyrazolo[3,4,5-de][1,6]naphthyridin-7-yl)-3-(1-phenylethyl)urea] | 111
COCCNc1n[nH]c2cc(NC(=O)N[C@H](COC)c3ccccc3)ncc12 [Example 371, 1-{3-[(2-methoxy-ethyl)amino]-1H-pyrazolo[4,3-c]-pyridin-6-yl}-3-[(1S)-2-methoxy-1-phenylethyl]urea] | 0.7
C[C@@H](NC(=O)Nc1cc2[nH]nc(NC(C)(C)C)c2cn1)c1ccccc1 [Example 351, 1-[3-(tert-butylamino)-1H-pyrazolo[4,3-c]-pyridin-6-yl]-3-[(1R)-1-phenylethyl]urea] | 88
C[C@@H](NC(=O)Nc1cc2[nH]nc(NC(=O)N3C[C@H]4COC[C@H]4C3)c2cn1)c1ccc(F)cc1 [Example 458, (3aR,6aS)-N-(6-(3-((R)-1-(4-fluorophenyl)ethyl)ureido)-1H-pyrazolo[4,3-c]pyridin-3-yl)tetrahydro-1H-furo[3,4-c]pyrrole-5(3H)-carboxamide] | 14.3
C[C@@H](NC(=O)Nc1cc2[nH]nc(NC(=O)C3CCOCC3)c2cn1)c1ccccc1 [Example 181, N-[6-({[(1R)-1-phenylethyl]-carbamoyl}amino)-1H-pyrazolo[4,3-c]pyridin-3-yl]-tetrahydro-2H-pyran-4-carboxamide] | 4.3
CCNc1n[nH]c2cc(NC(=O)N[C@H](C)c3ccc(Cl)c(C)c3)ncc12 [Example 252, 1-[(1R)-1-(4-chloro-3-methyl-phenyl)ethyl]-3-[3-(ethylamino)-1H-pyrazolo[4,3-c]-pyridin-6-yl]urea] | 2
C[C@@H](NC(=O)Nc1cc2[nH]nc(N[C@@H]3COC[C@H]3F)c2cn1)c1ccccc1 [Example 88, 1-(3-{[(3R,4S)-4-fluorotetrahydrofuran-3-yl]amino}-1H-pyrazolo[4,3-c]-pyridin-6-yl)-3-[(1R)-1-phenylethyl]urea] | 3.6
C[C@@H](NC(=O)Nc1cc2[nH]nc(NC3CCCNC3)c2cn1)c1ccccc1 (stereo partly drawn) [Example 164, 1-[(1R)-1-phenylethyl]-3-[3-(piperidin-3-ylamino)-1H-pyrazolo[4,3-c]-pyridin-6-yl]urea] | 30.2
Cn1cc2c(n1)CCN(c1n[nH]c3cc(NC(=O)N[C@@H](c4ccc(F)cc4)C(C)(C)O)ncc13)C2 [Example 126, 1-[(1S)-1-(4-fluorophenyl)-2-hydroxy-2-methylpropyl]-3-(2′-methyl-2,′4,′6,′7′-tetrahydro-1H-3,5′-bipyrazolo[4,3-c]pyridin-6-yl)urea] | 0.2
C[C@@H](NC(=O)Nc1cc2[nH]nc(NC(=O)N[C@H](C)c3ccc(Cl)c(C(F)(F)F)c3)c2cn1)c1ccc(Cl)c(C(F)(F)F)c1 [Example 310, N′,N″′-1H-pyrazolo[4,3-c]-pyridine-3,6-diylbis(1-{(1R)-1-[4-chloro-3-(trifluoromethyl)-phenyl]ethyl}urea)] | 2450
CC(C)COC(=O)Nc1n[nH]c2cc(NC(=O)N[C@H](C)c3ccccc3)ncc12 [Example 219, 2-methylpropyl [6-({[(1R)-1-phenylethyl}-carbamoyl}amino)-1H-pyrazolo[4,3-c]pyridin-3-yl]-carbamate] | 32.5
C[C@@H](NC(=O)Nc1cc2[nH]nc(NCc3ccncc3)c2cn1)c1ccccc1 [Example 179, 1-[(1R)-1-phenylethyl]-3-{3-[(pyridin-4-yl-methyl)amino]-1H-pyrazolo[4,3-c]-pyridin-6-yl}urea] | 1
C[C@@H](NC(=O)Nc1cc2[nH]nc(N3CCc4ncsc4C3)c2cn1)c1ccccc1 [Example 123, 1-[3-(6,7-dihydro[1,3]thiazolo-[5,4-c]pyridin-5(4H)-yl)-1H-pyrazolo[4,3-c]pyridin-6-yl]-3-[(1R)-1-phenylethyl]urea] | 0.4
COC[C@@H](NC(=O)Nc1cc2[nH]nc(N3CCC(O)CC3)c2cn1)c1ccccc1 [Example 410, 1-[3-(4-hydroxypiperidin-1-yl)-1H-pyrazolo[4,3-c]-pyridin-6-yl]-3-[(1S)-2-methoxy-1-phenylethyl]urea] | 1.2
C[C@@H](NC(=O)Nc1cc2[nH]nc(N3CCC(C)(O)CC3)c2cn1)c1ccccc1 [Example 424, 1-[3-(4-hydroxy-4-methylpiperidin-1-yl)-1H-pyrazolo[4,3-c]-pyridin-6-yl]-3-[(1R)-1-phenylethyl]urea] | 21.5

Continued, values first:

IC50 [nM] | Compound
1.5 | CC(C)Nc1n[nH]c2cc(NC(=O)N[C@H](C)c3ccccc3)ncc12 [Example 325, 1-{3-[(1-methyl-ethyl)amino]-1H-pyrazolo[4,3-c]-pyridin-6-yl}-3-[(1R)-1-phenylethyl]urea]
12 | C[C@@H](NC(=O)Nc1cc2[nH]nc(NC3CC(N)C3)c2cn1)c1ccccc1 (stereo partly drawn) [Example 216, 1-{3-[(3-amino-cyclobutyl)amino]-1H-pyrazolo[4,3-c]pyridin-6-yl}-3-[(1R)-1-phenylethyl]urea]
0.7 | COc1nc(NC(=O)N[C@H](C)c2ccccc2)cc2[nH]nc(N)c12 [Example 452, 1-(3-amino-4-methoxy-1H-pyrazolo[4,3-c]-pyridin-6-yl)-3-[(1R)-1-phenylethyl]urea]
2.4 | COC(C)(C)C(NC(=O)Nc1cc2[nH]nc(N3C[C@@H](C)O[C@@H](C)C3)c2cn1)c1ccc(F)cc1 (stereo partly drawn) [Example 432, 1-{3-[(2R,6S)-2,6-dimethylmorpholin-4-yl]-1H-pyrazolo[4,3-c]-pyridin-6-yl}-3-[1-(4-fluorophenyl)-2-methoxy-2-methylpropyl]urea]
5.2 | COC(=O)Nc1n[nH]c2cc(NC(=O)N[C@H](C)c3ccc(Cl)cc3)ncc12 [Example 286, methyl [6-({[(1R)-1-(4-chlorophenyl)-ethyl]carbamoyl}-amino)-1H-pyrazolo[4,3-c]pyridin-3-yl]carbamate]
1.7 | C[C@@H](NC(=O)Nc1cc2[nH]nc(N[C@@H]3CCOC3)c2cn1)c1ccccc1 [Example 74, 1-[(1R)-1-phenylethyl]-3-{3-[(3R)-tetrahydro-furan-3-ylamino]-1H-pyrazolo[4,3-c]-pyridin-6-yl}urea]
11.8 | CCNc1n[nH]c2cc(NC(=O)NCc3cccc(F)c3)ncc12 [Example 241, 1-[3-(ethylamino)-1H-pyrazolo[4,3-c]pyridin-6-yl]-3-(3-fluorobenzyl)-urea]
0.6 | CCNc1n[nH]c2cc(NC(=O)N[C@@H](c3ccccc3)[C@H]3CCCO3)ncc12 [Example 149, 1-[3-(ethylamino)-1H-pyrazolo[4,3-c]pyridin-6-yl]-3-{(S)-phenyl[(2R)-tetrahydrofuran-2-yl]methyl}urea]
103 | Nc1n[nH]c2cc(NC(=O)N[C@@H]3CCOc4ccccc43)ncc12 [Example 258, 1-(3-amino-1H-pyrazolo[4,3-c]pyridin-6-yl)-3-[(4R)-3,4-dihydro-2H-chromen-4-yl]-urea]
8.6 | C[C@@H](NC(=O)Nc1cc2[nH]nc(NC(=O)N3CC(C)(O)C3)c2cn1)c1ccccc1 [Example 134, 3-hydroxy-3-methyl-N-[6-({[(1R)-1-phenylethyl]-carbamoyl}-amino)-1H-pyrazolo[4,3-c]pyridin-3-yl]-azetidine-1-carboxamide]
2.2 | CCNc1n[nH]c2cc(NC(=O)N[C@H](CC)c3ccc(Cl)cc3)ncc12 [Example 247, 1-[(1R)-1-(4-chlorophenyl)propyl]-3-[3-(ethylamino)-1H-pyrazolo[4,3-c]-pyridin-6-yl]urea]

Source: patent US9233979B2, “Compounds that are ERK inhibitors” (Merck Sharp & Dohme Corp., priority 2012, dated 2016)
